The text below walks through data of patent US20160376286A1, “Pyrimidin-4-one derivatives and their use in the tratement, amelioration or prevention of a viral disease” (priority 2011, published 2016).

For this assay, the system named is influenza A virus A/Aichi/2/68 (H3N2). Kind of assay: Cytopathic effect (CPE) assay H3N2 in MDCK cells. The assay is classed as cell-based, influenza A virus (A/Aichi/2/68 (H3N2)); MDCK cells. As for the experimental part:
A possible measure of the […] antiviral activity of the compounds having the formula I or II is the CPE assay disclosed herein. […] In this connection, the reduction in the virus-mediated cytopathic effect (CPE) upon treatment with the compounds was calculated as follows: The cell viability of infected-treated and uninfected-treated cells was determined using an ATP-based cell viability assay (Promega). The response in relative luminescent units (RLU) of infected-untreated samples was subtracted from the response (RLU) of the infected-treated samples and then normalized to the viability of the corresponding uninfected sample resulting in % CPE reduction.
The influenza A virus (IAV) was obtained from American Tissue Culture Collection (A/Aichi/2/68 (H3N2); VR-547). Virus stocks were prepared by propagation of virus on Mardin-Darby canine kidney (MDCK; ATCC CCL-34) cells and infectious titres of virus stocks were determined by the 50% tissue culture infective dose (TCID50) analysis as described in Reed, L. J., and H. Muench. 1938, Am. J. Hyg. 27:493-497.
MDCK cells were seeded in 96-well plates at 2×10^4 cells/well using DMEM/Ham's F-12 (1:1) medium containing 10% foetal bovine serum (FBS), 2 mM L-glutamine and 1% antibiotics (all from PAA). Until infection the cells were incubated for 5 hrs at 37° C., 5.0% CO2 to form a -80% confluent monolayer on the bottom of the well. Each test compound was dissolved in DMSO and generally tested at 25 μM and 250 μM. In those cases where the compounds were not soluble at that concentration they were tested at the highest soluble concentration. The compounds were diluted in infection medium (DMEM/Ham's F-12 (1:1) containing 5 μg/ml trypsin, and 1% antibiotics) for a final plate well DMSO concentration of 1%. The virus stock was diluted in infection medium (DMEM/Ham's F-12 (1:1) containing 5 μg/m1Trypsin, 1% DMSO, and 1% antibiotics) to a theoretical multiplicity of infection (M01) of 0.05.
After removal of the culture medium and one washing step with PBS, virus and compound were added together to the cells. In the wells used for cytotoxicity determination (i.e. in the absence of viral infection), no virus suspension was added. Instead, infection medium was added. Each treatment was conducted in two replicates. After incubation at 37° C., 5% CO2 for 48 hrs, each well was observed microscopically for apparent cytotoxicity, precipitate formation, or other notable abnormalities. Then, cell viability was determined using
CellTiter-Glo luminescent cell viability assay (Promega). The supernatant was removed carefully and 65 μl of the reconstituted reagent were added to each well and incubated with gentle shaking for 15 min at room temperature. Then, 60 μl of the solution was transferred to an opaque plate and luminescence (RLU) was measured using Synergy HT plate reader (Biotek).
Relative cell viability values of uninfected-treated versus uninfected-untreated cells were used to evaluate cytotoxicity of the compounds. Substances with a relative viability below 80% at the tested concentration were regarded as cytotoxic and retested at lower concentrations.
Reduction in the virus-mediated cytopathic effect (CPE) upon treatment with the compounds was calculated as follows: The response (RLU) of infected-untreated samples was subtracted from the response (RLU) of the infected-treated samples and then normalized to the viability of the corresponding uninfected sample resulting in % CPE reduction.
In general terms: Cytopathic effects are the visible damage that an infection or toxin causes in cultured cells.

SMILES strings stand for the structures.

Turning to `N/C(=N\O)c1ccc(C(=O)NO)nc1`, where the note is “activity conc 50 (μM)”, the “CPE H3N2 reduction (%)” value was −4.8%.

On to `CON(C)C(=O)c1ccc2ccccc2n1`, for which the “CPE H3N2 reduction (%)” value (activity conc 50 (μM)) is reported as −1.2%.

As for `O=C(NOC(=O)c1cc(N2CCCCC2)ccn1)c1cc(N2CCCCC2)ccn1`, the “CPE H3N2 reduction (%)” value (activity conc 50 (μM)) came to 29%. Turning to `CCONC(=O)c1cc(NCC2CCN(Cc3ccccc3)CC2)ccn1.Cl.Cl`, the “CPE H3N2 reduction (%)” value (activity conc 50 (μM)) is given as 14.8%.

With `Cc1cccc(C(=O)NOCc2ccccc2)n1`, the “CPE H3N2 reduction (%)” value (activity conc 50 (μM)) was −2.7%. On the same count and under the same terms, the value for `CCONC(=O)c1cccc(C)n1` was −2.1%; that for `COc1ccc2nc(C(=O)NOCc3ccccc3)ccc2c1` was −1.9%. Still for that read-out and setting: the value for `Cc1cccc(C(=O)N(C)OCc2ccccc2)n1` was −2.3%; that for `CCON(C)C(=O)c1cccc(C)n1` was −1.9%; that for `CN(OCc1ccccc1)C(=O)c1ccc(-c2ccccc2)cn1` was −2.6%. Turning to `O=C(c1cc2ccccc2cn1)N(O)Cc1ccccc1`, the “CPE H3N2 reduction (%)” value (activity conc 50 (μM)) is 34.2%. Turning to `O=C(NO)c1cc2ccccc2cn1`, for the setting “activity conc 50 (μM)”, the “CPE H3N2 reduction (%)” value worked out at 94.3%.

Turning to `O=C(NO)c1ccc(N2CCCC2)cn1`, the “CPE H3N2 reduction (%)” value (activity conc 50 (μM)) is listed as −4.3%.

For `Cl.O=C(c1cc(NS(=O)(=O)Cc2ccc(F)cc2)ccn1)N(O)Cc1ccccc1`, the “CPE H3N2 reduction (%)” value (activity conc 50 (μM)) is −1.1%. With `Cl.O=C(c1cc(C2=CCCNC2)ccn1)N(O)Cc1ccccc1`, the “CPE H3N2 reduction (%)” value (activity conc 50 (μM)) was determined as 9.5%. Consider `CN1CCN(c2ccnc(C(=O)N(C)O)c2)CC1`, for which the “CPE H3N2 reduction (%)” value (activity conc 50 (μM)) stood at 2.6%. For the compound `CN(O)C(=O)c1cc(N2CCOCC2)ccn1`, the “CPE H3N2 reduction (%)” value (activity conc 50 (μM)) stood at 5.7%.

For `Cl.O=C(c1cc(NS(=O)(=O)Cc2cccc(F)c2)ccn1)N(O)Cc1ccccc1`, where the note is “activity conc 50 (μM)”, the “CPE H3N2 reduction (%)” value stood at 9.6%. Same read-out and setting: the figure for `O=C(c1cc(C2CCCNC2)ccn1)N(O)Cc1ccccc1` (stereo not drawn) is 6.1%; for `Cl.O=C(c1cc(N2CCC(F)CC2)ccn1)N(O)Cc1ccccc1` it is 34%; for `Cl.O=C(c1cc(NS(=O)(=O)Cc2cccc(Cl)c2)ccn1)N(O)Cc1ccccc1` it is 9.5%. Still for that read-out and setting: the figure for `Cl.O=C(c1cc(NS(=O)(=O)Cc2cccc(C(F)(F)F)c2)ccn1)N(O)Cc1ccccc1` is 22.4%. On the same count and under the same terms, the figure for `O=C(NO)c1ccccn1` is 3.15%. Take `Nc1ccccc1NC(=O)c1ccc(C(=O)NO)nc1`: where the note is “activity conc 50 (μM)”, the “CPE H3N2 reduction (%)” value was −5.53%. On the same count and under the same terms, the value for `O=C(c1cc(C2=CC3CCC(C2)N3)ccn1)N(O)Cc1ccccc1` (stereo not drawn) was 5.49%. Turning to `Cl.O=C(NO)c1cc(NS(=O)(=O)Cc2ccc(Cl)c(Cl)c2)ccn1`, the “CPE H3N2 reduction (%)” value (activity conc 50 (μM)) turned out to be 53.43%. With `Cl.O=C(NO)c1cc(NS(=O)(=O)Cc2cccc3cccnc23)ccn1`, the “CPE H3N2 reduction (%)” value (activity conc 50 (μM)) was 24.39%. As for `Cc1c(-c2ccccc2)sc2nc(N)[nH]c(=O)c12` [SAV-7475], where the note is “activity conc 5”, the “CPE H3N2 reduction (%)” value stood at 8.9%. Turning to `Nc1nc2sc(Cc3ccccc3)cc2c(=O)[nH]1` [SAV-7517], for the setting “activity conc 10”, the “CPE H3N2 reduction (%)” value was 39.3 13 −2.64%. With `Cc1c(Cc2ccccc2)sc2nc(N)[nH]c(=O)c12` [SAV-7521], for the setting “activity conc 25”, the “CPE H3N2 reduction (%)” value was 64.7 6 33.6%.

As for `Nc1nc2sc(-c3ccccc3)cc2c(=O)[nH]1` [SAV-7549], where the note is “activity conc 50 (μM)”, the “CPE H3N2 reduction (%)” value was 65.5 −2.4 8.8%. `COc1ccc(-c2sc3nc(N)[nH]c(=O)c3c2C)cc1` [SAV-7575]: the “CPE H3N2 reduction (%)” value (activity conc 20) is recorded as 35.9 9.02 4%.

With `Cc1c(-c2ccc(Cl)cc2)sc2nc(N)[nH]c(=O)c12` [SAV-7579], for the setting “activity conc 20”, the “CPE H3N2 reduction (%)” value is on record as 21.4 11.3 0.27%.

On to `Cc1c(-c2cccc(C(F)(F)F)c2)sc2nc(N)[nH]c(=O)c12` [SAV-7581], for which, under “activity conc 50 (μM)”, the “CPE H3N2 reduction (%)” value came out at 87.8%. Still for that read-out and setting: the value for `Cc1c(-c2ccccc2)sc2nc(NCCCO)[nH]c(=O)c12` [SAV-7582] was 102.9 4.2 53.1%.

Turning to `Cc1ccc(-c2sc3nc(N)[nH]c(=O)c3c2C)cc1` [SAV-7585], the “CPE H3N2 reduction (%)” value (activity conc 2.5) was found to be 28.9%.

In the case of `Cc1c(-c2ccncc2)sc2nc(N)[nH]c(=O)c12` [SAV-7586], the “CPE H3N2 reduction (%)” value (activity conc 15) amounted to 81.2%.

Turning to `Cc1c(-c2cccnc2)sc2nc(N)[nH]c(=O)c12` [SAV-7589], the “CPE H3N2 reduction (%)” value (activity conc 50 (μM)) is 63.1%. As to `Cc1c(-c2cccc(C#N)c2)sc2nc(N)[nH]c(=O)c12` [SAV-7594], the “CPE H3N2 reduction (%)” value (activity conc 5) is reported as 14.5%. In the case of `Cc1c(-c2ccccc2F)sc2nc(N)[nH]c(=O)c12` [SAV-7598], where the note is “activity conc 2”, the “CPE H3N2 reduction (%)” value is recorded as 21.3 3.7 11.4%. Turning to `Cc1c(-c2ccc(F)cc2)sc2nc(N)[nH]c(=O)c12` [SAV-7601], the “CPE H3N2 reduction (%)” value (activity conc 50 (μM)) is listed as 69.2 1.1 44.3%. With `Cc1c(-c2ccc(Cl)c(C#N)c2)sc2nc(N)[nH]c(=O)c12` [SAV-7602], the “CPE H3N2 reduction (%)” value (activity conc 20) is recorded as 67.9 1.7 35.1%.

As to `CC(c1ccccc1)c1cc2c(=O)[nH]c(N)nc2s1` (stereo not drawn) [SAV-7604], where the note is “activity conc 20”, the “CPE H3N2 reduction (%)” value is listed as −4.7 6.4%.

For `Cc1c(-c2ccc(F)cc2F)sc2nc(N)[nH]c(=O)c12` [SAV-7610], the “CPE H3N2 reduction (%)” value (activity conc 2) is on record as −1.6%.

For `Cc1c(C2=CCNCC2)sc2nc(N)[nH]c(=O)c12` [SAV-7614], the “CPE H3N2 reduction (%)” value (activity conc 50 (μM)) is given as 190 10.6%. As to `Cc1c(-c2cc(C#N)ccc2F)sc2nc(N)[nH]c(=O)c12` [SAV-7615], where the note is “activity conc 20”, the “CPE H3N2 reduction (%)” value was 59.2%. With `Cc1c(-c2cccc(Cl)c2F)sc2nc(N)[nH]c(=O)c12` [SAV-7616], under “activity conc 10”, the “CPE H3N2 reduction (%)” value was found to be 68.7%. For the compound `Cc1c(-c2cc(C#N)ccc2Cl)sc2nc(N)[nH]c(=O)c12` [SAV-7617], the “CPE H3N2 reduction (%)” value (activity conc 2) was 2 5.1%. For the compound `Cc1c(-c2ccc(Cl)cc2F)sc2nc(N)[nH]c(=O)c12` [SAV-7618], the “CPE H3N2 reduction (%)” value (activity conc 50 (μM)) is recorded as 77.4%.

On to `Cc1cc(-c2sc3nc(N)[nH]c(=O)c3c2C)ccc1Cl` [SAV-7620], for which the “CPE H3N2 reduction (%)” value (activity conc 50 (μM)) is 57.8%. As a reminder, the IC50 is the concentration at which inhibition is half-maximal. On to `Cc1c(-c2ccc(F)nc2F)sc2nc(N)[nH]c(=O)c12` [SAV-7621], for which, under “Influenza A virus, H3N2, MDCK, read-out: CPE H3N2 IC50 [μM]”, the IC50 worked out at 70 µM. For the setting “activity conc 25”, the “CPE H3N2 reduction (%)” value came out at 14.3%. As for `Cc1c(-c2ccc(Cl)c(C(F)(F)F)c2)sc2nc(N)[nH]c(=O)c12` [SAV-7623], the “CPE H3N2 reduction (%)” value (activity conc 5) came out at 1.9%. As for `Cc1c(-c2ccc(Cl)c(C(=O)N(C)C)c2)sc2nc(N)[nH]c(=O)c12` [SAV-7626], the “CPE H3N2 reduction (%)” value (activity conc 25) is 6.4 −4.6%. For the compound `Cc1c(-c2cccc(C#N)c2F)sc2nc(N)[nH]c(=O)c12` [SAV-7627], the “CPE H3N2 reduction (%)” value (activity conc 50 (μM)) stood at 71.2%.

Regarding `Cc1c(-c2ccc(F)c(C#N)c2F)sc2nc(N)[nH]c(=O)c12` [SAV-7628], the “CPE H3N2 reduction (%)” value (activity conc 50 (μM)) turned out to be 84.3%. With `Cc1c(-c2cccc(CN(C)C)c2)sc2nc(N)[nH]c(=O)c12` [SAV-7629], the “CPE H3N2 reduction (%)” value (activity conc 50 (μM)) was found to be 38.3%. Same read-out and setting: the figure for `Cc1c(-c2ccc(Cl)nc2)sc2nc(N)[nH]c(=O)c12` [SAV-7632] is 0.75 53%.

Regarding `Cc1c(-c2ccnc(Cl)c2F)sc2nc(N)[nH]c(=O)c12` [SAV-7633], the “CPE H3N2 reduction (%)” value (activity conc 50 (μM)) stood at 63.1%.

Regarding `Cc1c(-c2c(F)ccc(Cl)c2F)sc2nc(N)[nH]c(=O)c12` [SAV-7637], under “activity conc 5”, the “CPE H3N2 reduction (%)” value is listed as 1.5%. Same read-out and setting: the value for `Cc1c(-c2ccccc2)sc2nc(Nc3ccccc3)[nH]c(=O)c12` [SAV-7638] was 8.7%.

In the case of `Cc1c(-c2ccccc2)sc2nc(NC3CCCCC3)[nH]c(=O)c12` [SAV-7640], where the note is “activity conc 5”, the “CPE H3N2 reduction (%)” value was −3.2%. For the compound `O=C(NO)c1cc(NS(=O)(=O)Cc2ccccc2)ccn1` [drawing 243], the “CPE H3N2 reduction (%)” value (activity conc 50 (μM)) was 5.1%.
